In a melting point compilation (Tetko et al.; mined from patent text by program, amines drawn as free bases though some values may be those of a salt) one finds melting point data, which are given here for 93 compounds.

In general, melting point refers to the temperature, or range, at which the solid turns liquid.

With `O=C1NCc2c1cc1ccc3c(c1c2-c1ccc(Br)cc1)OCO3`, the melting point is 273 to 274 °C.

`C[C@H](NC(=O)c1c[nH]c2ncc(-c3ccc(C(=O)NCc4cccc(C#N)c4)s3)nc12)C(C)(C)C` gave a melting point of 171 to 174 °C.

Compound `CSc1c2c(nn1C)N(c1c(C)cc(C)cc1C)CCC2` displayed a melting point of 90.3 to 91.7 °C.

Consider `CC(C)c1ccccc1Sc1c(O)cc(-c2cc(Cl)cc(Cl)c2)oc1=O`, for which the melting point was in the range of 168 to 169 °C.

On to `CCCn1c(=O)c2[nH]c(-c3ccc4c(c3)OCCO4)nc2n(CCC)c1=O`, for which the melting point lay within 280 to 282 °C.

As to `Cc1ccc(S(=O)(=O)OCC2COc3ccc4nccnc4c3O2)cc1` (stereo not drawn), the melting point was 124 to 127 °C.

In turn, `CCOCC1(O)CCN(c2ccc(N3C[C@H](CNC(C)=O)OC3=O)cc2F)CC1` had a melting point of 76 to 78 °C.

With `CC(C)OC(=O)C1(c2onc(-c3ccc(O)cc3)c2-c2ccccc2)CC1`, the melting point was 175 °C.

Turning to `Cc1ccnc(Nc2nc(-c3ccccc3O)cs2)c1`, the melting point lay in the range of 249 to 250 °C.

As for `COc1ccc(Cn2c(Br)nc3c(-c4ccco4)ncnc32)cc1`, the melting point lay in the range of 150 to 151 °C.

For `CC(C)(C)OC(=O)C[C@H](NC(=O)CNC(=O)c1csc(NC(=O)NCc2ccccc2)n1)C(=O)NCc1ccccc1`, the melting point is 123 °C.

Regarding `CC1(O)CSC(=S)N1c1ccc(Cl)cn1` (stereo not drawn), the melting point was determined as 95 °C.

The compound `CCOC(=O)C=Cc1ccc(N(CCOC)C(=O)c2ccncc2)cc1` had a melting point of 98.4 to 102 °C.

Compound `CCOC(=O)c1ncc2[nH]c3cccc(CN4CCOCC4)c3c2c1COC` displayed a melting point of 195 to 196 °C.

`CC1(C)CCC(C)(C)c2cc(Oc3ccc(C=C(O)C(=O)O)cc3)ccc21` had a melting point of 207 to 210 °C.

For the compound `COc1cc(Nc2c(C#N)cnc3cc(-c4ccc(CO)cc4)sc23)c(Cl)cc1Cl`, the melting point lay within 239 to 240 °C.

`O=C(O)CCC(=O)c1ccc2[nH]c3ncc(Cl)cc3c2c1`: the melting point came to 243 °C.

With `Nc1ccc(C(=O)c2ccc(N)cc2)cc1`, the melting point came to 241 °C.

In turn, `O=C1c2ccccc2OCN1CCCl` registered a melting point of 45 °C.

As for `Clc1ccc2[nH]nc(I)c2c1`, the melting point is 198 to 199 °C.

As for `CN1CCN(c2nc(=NC(=O)NC(C)(C)C)ss2)CC1`, the melting point lay within 169 to 172 °C.

The compound `CCOc1nccc(-c2c(-c3ccc(F)cc3)ncn2[C@H]2CC[C@H](O)CC2)n1` registered a melting point of 184 to 186 °C.

In turn, `COc1cc(Oc2ccc(S(C)(=O)=O)nc2)cc2cc(C3=NCC(CC(=O)N(C)C)S3)[nH]c12` (stereo not drawn) showed a melting point of 206 to 207 °C.

The compound `CCOC(=O)c1cn(C)nc1OCc1ccccc1` displayed a melting point of 66 to 67 °C.

Compound `COCc1nc(N)nc(N)c1-c1cc(Cl)cc(Cl)c1Cl` gave a melting point of 265 to 268 °C.

Consider `O=C(CSCc1ccc(F)cc1)NO`, for which the melting point was 115 to 116 °C.

Regarding `O=P1(c2ccc(F)cc2)c2ccccc2CN1c1ccc(Br)cc1` (stereo not drawn), the melting point is 201 to 205 °C.

`CC(=O)NNC(=O)c1cc2cccc(NS(=O)(=O)c3cccs3)c2[nH]1` gave a melting point of 254 to 256 °C.

`Cc1ccc(S(=O)(=O)OC[C@H]2CN(c3cccc(F)c3)C(=O)O2)cc1`: the melting point was 114 to 115 °C.

The compound `O=C(CCC#Cc1ccccn1)Nc1cccc(Cl)c1` had a melting point of 168 to 169 °C.

As for `CC(=O)N(c1ccccc1)c1ccc(C(=O)CBr)cc1`, the melting point was in the range of 152 to 153 °C.

With `COc1ccc(CN(Cc2ccc(OC)cc2)c2nc(Cl)c3ncn(Cc4ccc(OC)cc4)c3n2)cc1`, the melting point was in the range of 157 to 159 °C.

Turning to `CNC(=O)Oc1cccc(NC(=O)CC(C)=O)c1`, the melting point was found to be 142 °C.

In turn, `CCn1nc2c(N)nc3ccccc3c2c1CCCCOC(C)=O` had a melting point of 128 to 129 °C.

`CCCNCC1Cc2ccc(C3=NNC(=O)CC3)cc2C1` (stereo not drawn): the melting point was 82 to 84 °C.

In the case of `CC(C)CCc1c(-c2ccc(S(C)(=O)=O)cc2)cnn(-c2ccc(F)c(Cl)c2)c1=O`, the melting point lay within 55 to 58 °C.

Turning to `COc1ccc(CNc2nc(COCC(=O)O)nc3sc4c(c23)CCCC4)cc1Cl`, the melting point lay in the range of 136 to 137 °C.

`CC(=O)NCCCc1ccc(CN2CCN(c3ccccc3)CC2)cc1` came in with a melting point of 117 to 118 °C.

In turn, `CSc1nc2nc3cc(C(F)(F)F)ccc3cc2[nH]1` displayed a melting point above 270 °C.

Take `Cc1nc2ncnn2c(N2CCC(C)CC2)c1C1CCCC1`: the melting point is 145 °C.

For `COCCC1CCCCN1C(=O)C=Cc1c(-c2ccccc2)nn2ccccc12` (stereo not drawn), the melting point was in the range of 139 to 140 °C.

`CC(C)Cc1ccc2c([N+](=O)[O-])c(O)c(O)cc2c1` yielded a melting point of 105 to 108 °C.

In turn, `COc1n[nH]c(=O)n1C` had a melting point of 146 °C.

As to `Cc1nc(CO)n(COCc2ccccc2)c1Sc1ccccc1`, the melting point was 87 to 88 °C.

`C=CCN1Cc2nc3c(cnn3CCC#CC)c(N)c2C1=O` returned a melting point of 192 to 194 °C.

`COc1cccc(COc2cc3c(cc2-c2cc(C=CC(=O)O)ccc2O)C(C)(C)CCC3(C)C)c1` displayed a melting point of 113 to 115 °C.

In turn, `CNC(=O)C1=CC(CF)(CF)Oc2cc(Cl)c(Cl)cc21` displayed a melting point of 141 to 142 °C.

`COc1ccc(C(=O)c2c(F)cccc2F)cc1CC(=O)O`: the melting point turned out to be 187 °C.

With `CCOC(=O)c1cc(C)n(-c2cccc(S(C)(=O)=O)c2)c1-c1ccccc1`, the melting point fell in the range of 131 to 133 °C.

Consider `Nc1ccsc1C(=O)c1ccccc1`, for which the melting point is 100 to 102 °C.

As to `CC(C)OC(=O)N1CCC(c2nc3cc(-c4ccc(C(=O)NC5CC5)c(F)c4)ccc3o2)CC1`, the melting point fell in the range of 162 to 165 °C.

With `CN(C)C(=O)CSc1nc2ccccc2cc1-c1ccccc1`, the melting point fell in the range of 86 to 89 °C.

Compound `Cc1c(-c2cnccn2)c(N2CC[C@H](N(C)C)C2)c2oc(C3CC3)nc2c1C#N` registered a melting point of 157 to 159 °C.

Compound `CCOC(=O)c1c[nH]nc1NCc1ccccc1` yielded a melting point of 99 to 100 °C.

Compound `C[C@]1(COc2ccc3nc(N4CCC(Cc5ccc(OC(F)(F)F)cc5)CC4)ccc3c2)Cn2cc([N+](=O)[O-])nc2O1` yielded a melting point of 185 to 186 °C.

`C=C(C)COc1cc(C)c(NC=O)c(C)c1CC(=C)C`: the melting point was 109 °C.

Take `CNC(=O)N(C)c1nc(CC(=O)Nc2nnc(C(C)(C)C)s2)cs1`: the melting point lay within 175 to 177 °C.

Compound `COC(=O)c1ccc(C(=O)c2ccc(C)cc2)cc1` came in with a melting point of 125 to 126 °C.

The compound `COC(=O)c1ccccc1S(=O)(=O)NC(=O)Nc1nc(C)c(C)c(C)n1` displayed a melting point of 152 to 161 °C.

`COC(=O)c1nc(-c2cc(N(C)C)c(Cl)cc2F)cc(N)c1Cl` showed a melting point of 113 to 115 °C.

As to `NC(=O)N(O)Cc1ccoc1`, the melting point fell in the range of 125 to 128 °C.

`CS(=O)(=O)c1cccc(-n2c(=O)n(Cc3ccncc3)c(=O)c3cccnc32)c1` returned a melting point of 254 to 256 °C.

Consider `CCCS(=O)(=O)c1cccnc1S(N)(=O)=O`, for which the melting point lay in the range of 153 to 157 °C.

Regarding `CN(C)C(=O)CC1Cc2ccccc2NC1=O` (stereo not drawn), the melting point is 172 to 173 °C.

`Cc1nc2cc3c(cc2o1)C1(CO3)C(=O)Nc2ccccc21` (stereo not drawn) returned a melting point of 242 to 244 °C.

Turning to `CCOC(=O)C1(C(=O)OCC)CCNC(=O)CC1`, the melting point is 80 to 81 °C.

Turning to `O=C(O)Cc1ccc(-n2cccn2)c(Br)c1`, the melting point lay within 100 to 101 °C.

Take `COc1cc(C)c(C(=O)c2c(C)cccc2OC)c(OC)c1OC`: the melting point is 84 °C.

In turn, `CCOCCn1c(C2CCN(C)C(c3ccc(C(C)(C)C)cc3)C2)nc2ccccc21` (stereo not drawn) had a melting point of 51 to 53 °C.

In the case of `COc1c([N+](=O)[O-])cc(C(C)=O)c2c1CCCC2`, the melting point is 76 to 77 °C.

`CCS(=O)(=O)Nc1ccc(OC(=O)NC)cc1C` gave a melting point of 146 to 148 °C.

Compound `CC(C)(C)NS(=O)(=O)Cc1ccccc1N` gave a melting point of 115 to 117 °C.

`CC1(C)OCCC2C(C3(O)CCSCC3)C(=O)N21` (stereo not drawn): the melting point fell in the range of 133 to 134 °C.

Take `COC(=O)c1cn2c(n1)COc1c(OC)cccc1-2`: the melting point fell in the range of 188 to 190 °C.

Compound `CCOc1cc2cc(CO)nc(-c3ccc(Cl)c([N+](=O)[O-])c3)c2cc1OCC` displayed a melting point of 187 to 188 °C.

`Cc1cc(F)c(Nc2ncnc3cc(NC(=O)CCN4CCOCC4)ccc23)cc1O` gave a melting point of 228 to 233 °C.

Regarding `Cn1c(N2CCOC(c3noc(-c4ccccc4)n3)C2)nc(-c2ccncn2)cc1=O` (stereo not drawn), the melting point came out at 208 °C.

`OC1(c2ccc(Br)cc2)c2ccccc2C2=NCCN21` (stereo not drawn) returned a melting point of 194 to 196 °C.

Compound `COC(=O)c1ccc(Cl)cc1NC(=O)CSc1ccc(C)c(C)c1` registered a melting point of 90 to 91 °C.

Compound `CCn1nnn(CCN2CCC(COC)(N(OCc3ccccc3)C(C)=O)CC2)c1=O` came in with a melting point of 140 to 141 °C.

The compound `O=C(C1CC1)N1CCCC1Cc1ccc(Cl)cc1` (stereo not drawn) returned a melting point of 62 to 64 °C.

For the compound `CCCc1c(OCC(O)CNc2cccc(N)c2C#N)ccc(C(C)=O)c1O` (stereo not drawn), the melting point fell in the range of 111 to 114 °C.

The compound `CC(C)(C)C(OC(=O)Cl)=C(Oc1ccc(Cl)cc1)n1cncn1` came in with a melting point of 159 to 161 °C.

In turn, `CC=CC1=C(O)C(=O)c2ccccc2C1=O` gave a melting point of 133 to 134 °C.

`CCOC(=O)C=Cc1c(C)cc(OC)c(C)c1C` returned a melting point of 42 to 44 °C.

Consider `COc1cc2ncc(C#N)c(Nc3cccc(SC)c3)c2cc1OC`, for which the melting point is above 250 °C.

`COC(=O)c1nc(CCN(C)C)n2c1CN=C(c1ccccc1Cl)c1cc(Cl)ccc1-2` showed a melting point of 203 to 204 °C.

Compound `NNC(=O)c1ccc2[nH]ncc2c1` gave a melting point of 251 to 252 °C.

Compound `Cc1ccc(S(=O)(=O)N(c2ccc(Cl)cc2[N+](=O)[O-])C2CC2)cc1` showed a melting point of 98.5 to 100 °C.

`CC(C)=Cn1ncc(OCc2ccc(I)nc2)c(Cl)c1=O` came in with a melting point of 141 to 142 °C.

Take `CC(C)Oc1ccc(COc2ccc(CC(=O)O)cc2Cl)cc1`: the melting point was in the range of 115 to 116 °C.

In the case of `Cc1ccc(CCCc2c(C(C)C)nc(C(C)C)c(CO)c2-c2ccc(F)cc2)cc1`, the melting point is 79 to 80 °C.

With `OC(COc1cc(-c2ccccc2)on1)CN1CCOCC1` (stereo not drawn), the melting point lay in the range of 123 to 124 °C.
